Laboratory results published in PubChem BioAssay (NCI).
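Abbreviation: GI50, concentration required for 50% inhibition of growth. TGI is the concentration that stops growth completely.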

How the values were obtained:
Experiment in all cases: growth of human tumour cells (NCI), 384-well format
HCT-116 colon = test system: HCT-116 colon
HCT-15 colon = test system: HCT-15 colon
HS 578T breast = test system: HS 578T breast
SNB-75 CNS = test system: SNB-75 CNS
UACC-257 melanoma = test system: UACC-257 melanoma
SF-539 CNS = test system: SF-539 CNS
SK-MEL-5 melanoma = test system: SK-MEL-5 melanoma
SK-MEL-28 melanoma = test system: SK-MEL-28 melanoma
NCI-H226 lung = test system: NCI-H226 lung
HT29 colon = test system: HT29 colon
SR leukemia = test system: SR leukemia
MCF7 breast = test system: MCF7 breast
SK-OV-3 ovarian = test system: SK-OV-3 ovarian

Q: What does the source list for COC(=O)c1ccc([C@H]2c3[nH]c4ccccc4c3C[C@H](C(=O)OC)N2C(=O)CCl)cc1?
A: GI50 (HCT-116 colon): 0.366 µM; TGI (HCT-116 colon): 1.45 µM; GI50 (HCT-15 colon): 0.157 µM; TGI (HCT-15 colon): 0.913 µM; GI50 (HS 578T breast): 0.131 µM; TGI (HS 578T breast): 0.311 µM; GI50 (SNB-75 CNS): 0.0185 µM; TGI (SNB-75 CNS): 0.0414 µM; GI50 (UACC-257 melanoma): 0.0868 µM; TGI (UACC-257 melanoma): 0.336 µM; GI50 (SF-539 CNS): 0.0339 µM; TGI (SF-539 CNS): 0.114 µM; GI50 (SK-MEL-5 melanoma): 0.479 µM; TGI (SK-MEL-5 melanoma): 1.76 µM; GI50 (SK-MEL-28 melanoma): 1.45 µM; TGI (SK-MEL-28 melanoma): 2.83 µM; GI50 (NCI-H226 lung): 0.0751 µM; TGI (NCI-H226 lung): 0.449 µM; GI50 (HT29 colon): 0.227 µM; TGI (HT29 colon): 0.707 µM; GI50 (SR leukemia): < 0.01 µM; TGI (SR leukemia): 0.0205 µM; GI50 (MCF7 breast): 0.553 µM; TGI (MCF7 breast): 1.83 µM; GI50 (SK-OV-3 ovarian): 0.158 µM; TGI (SK-OV-3 ovarian): 0.299 µM
